The results in this text go back to patent publication US5945436A, “Pyridylmethyl nitriles, amides and thioamides useful as fungicides” (Uniroyal Chemical Company, Inc., priority 1997, dated 1999).

One test concerns Erysiphe graminis. The test can be described thus: Powdery mildew of barley, systemic root uptake (BMS). Format: in vivo. The following applies: 45 ml of 250 mg/l, 8 days after inoculation. The essentials: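 Pot soil of barley (BMS) and cucumber (CMS) plants was drenched with 45 ml of a 250 mg/l acetone/Tween 20 aqueous emulsion, with untreated plants as controls. Disease was scored on a rating scale that included intermediate grades.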

The next test relates to Erysiphe polygoni. The test can be described thus: Powdery mildew on pinto bean, foliar application (ERY POL). The test is classed as in vivo. The following applies: similar procedure as barley (1,000 mg/l); for pest or weed control at 1000 µg/mL: Erysiphe polygoni, read-out: Percent Reduction of Disease, ERY POL. The essentials: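 Pinto bean plants sprayed with compound emulsion (acetone or inert solvent, TWEEN 20, water) at 1,000 mg/l, or left unsprayed, dried, then inoculated with Erysiphe polygoni spores in a 21° C greenhouse. Disease scored; percent control computed against untreated controls.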

In another test the test system is Pyricularia oryzae. The test can be described thus: whole plant or invertebrate. Format: in vivo. The following applies: for pest or weed control at 1000 µg/mL: Pyricularia oryzae, in Hordeum vulgare, foliar, 216 h, read-out: Percent Reduction of Disease, PYR ORY, barley, foliar, 1,000 mg/l.
A further test deals with Helminthosporium sativum. In words: Barley spot blotch, foliar treatment (HEL SAT). The test is classed as in vivo. The following applies: foliar, 1,000 mg/l; for pest or weed control at 1000 µg/mL: Helminthosporium, foliar, 216 h, read-out: Percent Reduction of Disease, HEL SAT. The method, boiled down: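 Six-day-old "Robust" barley, 10 plants per pot, sprayed at 1,000 mg/l (acetone solution emulsified in water with TWEEN 20) or left unsprayed as controls. All plants then inoculated with H. sativum spores, held 24 h at 99% humidity, then 8 days in greenhouse at 21° C. Percent control computed.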

Another test deals with Pythium ultimum. The test can be described thus: Fungal growth inhibition, treated disc on agar (PYT ULT). The test is classed as cell-based. The following applies: disc dipped in 500 mg/l, 29° C.; for inhibition at 500 µg/mL: Globisporangium ultimum, read-out: Percent Growth Inhibition, PYT ULT.
Another test deals with Scierotinia minor. In words: Fungal growth inhibition, treated disc on agar (SCL MIN). Format: cell-based. The following applies: disc dipped in 500 mg/l, 29° C.; for inhibition at 500 µg/mL: read-out: Percent Growth Inhibition, SCL MIN.
Another test concerns Rhizoctonia solani. The test can be described thus: Fungal growth inhibition, treated disc on agar (RHI SOL). Format: cell-based. The following applies: disc dipped in 500 mg/l, 29° C.; for inhibition at 500 µg/mL: Rhizoctonia solani, read-out: Percent Growth Inhibition, RHI SOL.
The test system of a further test is Colletotrichum gossypii. In words: Fungal growth inhibition, treated disc on agar (COL GOS). Format: cell-based. The following applies: disc dipped in 500 mg/l, 29° C.; for inhibition at 500 µg/mL: Colletotrichum gossypii, read-out: Percent Growth Inhibition, COL GOS.

Excerpt for Pythium ultimum: Filter paper discs, each 11 mm. in diameter, were dipped in each of the test solutions. The discs were allowed to air dry to drive off the acetone solvent. A number of untreated discs were used as controls.
The treated and untreated discs were then placed on agar plates and one of the following fungus species: Septoria nodorum (SEP NOD), Botrytis cinerea (BOT CIN), Fusarium oxysporum (FUS OXY), Pythium ultimum (PYT ULT), Rhizoctonia solani (RHI SOL), Colletotrichum gossypii (COL GOS), and Scierotinia minor (SCL MIN), was added to the center of each disc in the form of a culture plug with the fungus mat in contact with the paper of the test disc. Cercosporidium personatum (CER PER), was added to discs as a spore suspension (20,000 spores/ml) to the disc (two drops of spore suspension per disc), rather than a mycelial culture plug. The plates were then incubated at 29° C. in an oven.
With the exception of the discs containing Cercosporidium personatum, the discs were evaluated by first measuring the radius from the center of the fungus colony on the treated discs and on the untreated discs. Percent growth inhibition of each of the compounds tested was determined as a function of the difference between the radius of the fungus colony on the treated disc versus the radius of the fungus colony on the untreated disc.

Consider `C=CCC(C#N)(CCc1ccccc1F)c1cccnc1` (stereo not shown) [Compound 67], for which the “Percent Reduction of Disease, BMS” value in the test with Erysiphe graminis stood at 100%. Moreover, the pest or weed control at 1000 µg/mL was 100% in the test with Erysiphe polygoni, 0% with Pyricularia oryzae and 100% in the test on Helminthosporium sativum. The inhibition at 500 µg/mL amounted to 20% in the test with Pythium ultimum, 100% in the test on Scierotinia minor, 40% in the test with Rhizoctonia solani and 100% in the test on Colletotrichum gossypii.

Take `CCCCC(C#N)(CCc1ccc(OCCF)cc1)c1cccnc1` (stereo not shown) [Compound 68]: the “Percent Reduction of Disease, BMS” value with Erysiphe graminis is recorded as 0%. Moreover, the pest or weed control at 1000 µg/mL in the test on Erysiphe polygoni amounted to 100%; in the test with Pyricularia oryzae it was 70%; in the test on Helminthosporium sativum, 100%. Also, the inhibition at 500 µg/mL in the test on Pythium ultimum was determined as 40%; in the test with Scierotinia minor it was 100%; in the test with Rhizoctonia solani, 45%; in the test with Colletotrichum gossypii it was 100%.

`CCCCC(C#N)(CCc1ccc(OCCC)cc1)c1cccnc1` (stereo not shown) [Compound 69]: the “Percent Reduction of Disease, BMS” value with Erysiphe graminis came out at 0%. For the same molecule, the “Percent Reduction of Disease, ERY POL” value in the test on Erysiphe polygoni came out at 100%. Also, the “Percent Reduction of Disease, PYR ORY” value with Pyricularia oryzae (barley, foliar, 1,000 mg/l) was found to be 0%. Moreover, the “Percent Reduction of Disease, HEL SAT” value in the test on Helminthosporium sativum turned out to be 85%. In the test on Pythium ultimum, the “Percent Growth Inhibition, PYT ULT” value worked out at 35%. Further, the “Percent Growth Inhibition, SCL MIN” value in the test on Scierotinia minor was 100%. Moreover, the “Percent Growth Inhibition, RHI SOL” value with Rhizoctonia solani turned out to be 5%. Also, the “Percent Growth Inhibition, COL GOS” value in the test with Colletotrichum gossypii is 100%.

As to `C=CCC(C#N)(CCCc1ccccc1OC)c1cccnc1` (stereo not shown) [Compound 70], the “Percent Reduction of Disease, BMS” value with Erysiphe graminis is recorded as 40%. The pest or weed control at 1000 µg/mL came out at 92% in the test on Erysiphe polygoni, 0% in the test on Pyricularia oryzae and 100% with Helminthosporium sativum. The inhibition at 500 µg/mL in the test on Pythium ultimum was determined as 49%; in the test with Scierotinia minor, 100%; in the test with Rhizoctonia solani, 28%; in the test with Colletotrichum gossypii it was 100%.

In the case of `CCCC(C#N)(CCCc1ccccc1OC)c1cccnc1` (stereo not shown) [Compound 71], the “Percent Reduction of Disease, BMS” value in the test with Erysiphe graminis was found to be 100%. Further, the pest or weed control at 1000 µg/mL worked out at 100% in the test with Erysiphe polygoni, 0% with Pyricularia oryzae and 100% with Helminthosporium sativum. For the same molecule, the inhibition at 500 µg/mL in the test with Pythium ultimum is 60%; with Scierotinia minor, 100%; in the test with Rhizoctonia solani it was 6%; with Colletotrichum gossypii, 100%.

Regarding `CCCC(C#N)(CCc1ccccc1C(F)(F)F)c1cccnc1` (stereo not shown) [Compound 72], the “Percent Reduction of Disease, BMS” value in the test on Erysiphe graminis is listed as 90%. Also, the pest or weed control at 1000 µg/mL in the test with Erysiphe polygoni was 92%; in the test on Pyricularia oryzae, 0%; with Helminthosporium sativum, 83%. In addition, the inhibition at 500 µg/mL was found to be 71% with Pythium ultimum, 100% in the test with Scierotinia minor, 38% in the test on Rhizoctonia solani and 100% with Colletotrichum gossypii.

In the case of `CCCCC(C#N)(CCc1ccccc1C(F)(F)F)c1cccnc1` (stereo not shown) [Compound 73], the “Percent Reduction of Disease, BMS” value in the test on Erysiphe graminis was found to be 100%. In addition, the pest or weed control at 1000 µg/mL came out at 100% in the test with Erysiphe polygoni, 0% with Pyricularia oryzae and 100% in the test with Helminthosporium sativum. Also, the inhibition at 500 µg/mL amounted to 69% with Pythium ultimum, 100% in the test on Scierotinia minor, 34% in the test with Rhizoctonia solani and 85% in the test with Colletotrichum gossypii.

As for `CCCCC(C#N)(CCc1ccccc1F)c1cccnc1` (stereo not shown) [Compound 74], the “Percent Reduction of Disease, BMS” value in the test with Erysiphe graminis was determined as 100%. Moreover, the pest or weed control at 1000 µg/mL with Erysiphe polygoni stood at 100%; in the test with Pyricularia oryzae it was 0%; in the test with Helminthosporium sativum, 100%. For the same molecule, the inhibition at 500 µg/mL in the test with Pythium ultimum was 36%; with Scierotinia minor, 100%; with Rhizoctonia solani it was 100%; in the test with Colletotrichum gossypii, 100%.
